Values joined by “and” are separate entries in the source; they are usually repeats but may differ in a detail not shown here. Equal entries are not always repeated.
System: Panc-1 xenograft
Assay: Ex vivo biodistribution in Panc-1 xenograft bearing mice
Experimental: Animals were housed in IVC cages in sex-matched groups up to 5 per cage, in an artificial day-night cycle facility, with ad libitum access to food and water. […] CaNT xenografts were generated by harvesting CaNT tumours from donor animals, and injecting a tumour homogenate subcutaneously in the flank of wild type CBA/Carl mice. Tumours were irradiated (10 Gy, 2 Gy/min) using a 300 kV X-ray device.
Biodistribution studies, where selected tissues were harvested, were performed 1 h post injection. Some animals were also administered an excess of cold, unlabelled olaparib for evaluating the specificity of tumour uptake. EF5, a hypoxia-selective marker, was injected 2 h before culling of the animal. Digital autoradiography was performed on tumour sections. Image analysis was performed using PMOD.
Cells were harvested using trypsin, washed twice using PBS, and reconstituted in DMEM. […] Tumour volumes (V) were calculated after calliper measurement using the following equation: V=(a^2×b)/2, where a is the width of the tumour and b the length (small and large diameters, respectively). The individual relative tumour volume (RTV) was defined as Vt/Vo, where Vt is the volume at a given time and Vo at the start of treatment. Animals were entered in in vivo studies when their tumour was at least 200 mm^3.
Two hours prior to PET/CT imaging, animals were exposed to X-irradiation of the tumour (10 Gy or sham) (see schedule in FIG. 13). Radiation was delivered using a Gulmay 320 kV X-irradiator; 2.0 Gy/min. […] Naïve CBA/Carl mice, not bearing tumours, were not irradiated, nor was EF5 administered.
Dynamic PET/CT images were acquired using a VECTor ^4CT integrated PET/CT system. Mice were anaesthetised by 4% isoflurane gas (0.5 L/min O2) and placed on a custom-built imaging cradle in a prone position.
After PET/CT image acquisition, animals were euthanized by cervical dislocation and selected organs, tissues and blood were removed. […] Counts per minute were converted into MBq using a calibration curve generated from known standards. Values were decay-corrected to the time of injection, and the percentage of the injected dose per gram (% ID/g) of each tissue was calculated.

## O=C(c1cc(Cc2n[nH]c(=O)c3ccccc23)ccc1[18F])N1CCN(C(=O)C2CC2)CC1 [[^18F]olaparib]
PANC-1 xenografts, 1 h after i.v. bolus, tracer alone
  tumour uptake (group mean): 3.16±0.36 % ID/g
PANC-1 xenografts, 2 h after 10 Gy vs non-irradiated
  increase of tumour uptake after irradiation: 70%
PANC-1 xenografts, 2 h after irradiation (10 Gy)
  tumour uptake (group mean): 5.35±1.16 % ID/g
PANC-1 xenografts, co-injection of excess cold olaparib
  tumour uptake (group mean): 1.20±0.17 % ID/g
Panc-1 xenograft mice, + IR (10 Gy), 1 h p.i., individual animals
  Ex vivo biodistribution Small intestine: 65.1 % ID/g and 113 % ID/g and 95.2 % ID/g

Reference: patent US20250340519A1, “RADIOLABELLED COMPOUND” (OXFORD UNIVERSITY INNOVATION LIMITED, priority 2018, published 2025)
